# Assay results from PubChem BioAssay AID1259407 (Chemical Carcinogenesis Research Information System (CCRIS), 2018).
# Active and inactive are the calls of the source. No rule for the calls is given here.
# Tested on: CCRIS mutagenicity, Ames/micronucleus/aberration tests
# Test: CCRIS mutagenicity studies
# [1] = Test System: AMES SALMONELLA TYPHIMURIUM, Strain/Indicator: TA98, Metabolic Activation: NONE, Method: STANDARD PLATE
# [2] = Test System: AMES SALMONELLA TYPHIMURIUM, Strain/Indicator: TA100, Metabolic Activation: NONE, Method: STANDARD PLATE
# [3] = Test System: AMES SALMONELLA TYPHIMURIUM, Strain/Indicator: TA1535, Metabolic Activation: NONE, Method: STANDARD PLATE
# [4] = Test System: AMES SALMONELLA TYPHIMURIUM, Strain/Indicator: TA1537, Metabolic Activation: NONE, Method: STANDARD PLATE
smiles,measurement,setting,value
CC(O)CN(CC(C)O)N=O (stereo not drawn),mutagenic call,"Test System: AMES SALMONELLA TYPHIMURIUM, Strain/Indicator: TA100, Metabolic Activation: HAMSTER, LIVER, S-9, 3-METHYLCHOLANTHRENE, Method: PREINCUBATION",inactive; negative
same,mutagenic call,"Test System: AMES SALMONELLA TYPHIMURIUM, Strain/Indicator: TA100, Metabolic Activation: HAMSTER, LIVER, S-9, PHENOBARBITAL, Method: PREINCUBATION",active; positive
same,mutagenic call,"Test System: AMES SALMONELLA TYPHIMURIUM, Strain/Indicator: TA100, Metabolic Activation: HAMSTER, LIVER, S-9, Method: PREINCUBATION",inactive; negative
same,mutagenic call,"Test System: AMES SALMONELLA TYPHIMURIUM, Strain/Indicator: TA100, Metabolic Activation: HUMAN, LIVER, S-9, Method: PREINCUBATION",inactive; negative
same,mutagenic call,"Test System: AMES SALMONELLA TYPHIMURIUM, Strain/Indicator: TA100, Metabolic Activation: MONKEY, LIVER, S-9, Method: PREINCUBATION",inactive; negative
same,mutagenic call,"Test System: AMES SALMONELLA TYPHIMURIUM, Strain/Indicator: TA100, Metabolic Activation: MOUSE, LIVER, S-9, 3-METHYLCHOLANTHRENE, Method: PREINCUBATION",inactive; negative
same,mutagenic call,"Test System: AMES SALMONELLA TYPHIMURIUM, Strain/Indicator: TA100, Metabolic Activation: MOUSE, LIVER, S-9, PHENOBARBITAL, Method: PREINCUBATION",active; positive
same,mutagenic call,"Test System: AMES SALMONELLA TYPHIMURIUM, Strain/Indicator: TA100, Metabolic Activation: MOUSE, LIVER, S-9, Method: PREINCUBATION",inactive; negative
same,mutagenic call,"Test System: AMES SALMONELLA TYPHIMURIUM, Strain/Indicator: TA100, Metabolic Activation: NONE, Method: PREINCUBATION",inactive; negative
same,mutagenic call,"Test System: AMES SALMONELLA TYPHIMURIUM, Strain/Indicator: TA100, Metabolic Activation: RABBIT, LIVER, S-9, Method: PREINCUBATION",inactive; negative
same,mutagenic call,"Test System: AMES SALMONELLA TYPHIMURIUM, Strain/Indicator: TA100, Metabolic Activation: RAT, LIVER, CYTOSOL, PCB, Method: PREINCUBATION",inactive; negative
same,mutagenic call,"Test System: AMES SALMONELLA TYPHIMURIUM, Strain/Indicator: TA100, Metabolic Activation: RAT, LIVER, MICROSOMES AND CYTOSOL, PCB, Method: PREINCUBATION",active; positive
same,mutagenic call,"Test System: AMES SALMONELLA TYPHIMURIUM, Strain/Indicator: TA100, Metabolic Activation: RAT, LIVER, MICROSOMES AND G6PDH, PCB, Method: PREINCUBATION",active; positive
same,mutagenic call,"Test System: AMES SALMONELLA TYPHIMURIUM, Strain/Indicator: TA100, Metabolic Activation: RAT, LIVER, MICROSOMES, PCB, Method: PREINCUBATION",inactive; negative
same,mutagenic call,"Test System: AMES SALMONELLA TYPHIMURIUM, Strain/Indicator: TA100, Metabolic Activation: RAT, LIVER, S-9 (HEATED), PCB, Method: PREINCUBATION",inactive; negative
same,mutagenic call,"Test System: AMES SALMONELLA TYPHIMURIUM, Strain/Indicator: TA100, Metabolic Activation: RAT, LIVER, S-9 (WITHOUT NADP+), PCB, Method: PREINCUBATION",inactive; negative
same,mutagenic call,"Test System: AMES SALMONELLA TYPHIMURIUM, Strain/Indicator: TA100, Metabolic Activation: RAT, LIVER, S-9, 3-METHYLCHOLANTHRENE, Method: PREINCUBATION",inactive; negative
same,mutagenic call,"Test System: AMES SALMONELLA TYPHIMURIUM, Strain/Indicator: TA100, Metabolic Activation: RAT, LIVER, S-9, AROCLOR 1254, Method: PREINCUBATION",active; positive
same,mutagenic call,"Test System: AMES SALMONELLA TYPHIMURIUM, Strain/Indicator: TA100, Metabolic Activation: RAT, LIVER, S-9, PCB, Method: PREINCUBATION",active; positive
same,mutagenic call,"Test System: AMES SALMONELLA TYPHIMURIUM, Strain/Indicator: TA100, Metabolic Activation: RAT, LIVER, S-9, PHENOBARBITAL, Method: PREINCUBATION",active; positive
same,mutagenic call,"Test System: AMES SALMONELLA TYPHIMURIUM, Strain/Indicator: TA100, Metabolic Activation: RAT, LIVER, S-9, Method: PREINCUBATION",inactive; negative
same,mutagenic call,"Test System: AMES SALMONELLA TYPHIMURIUM, Strain/Indicator: TA100, Method: PREINCUBATION",active; positive
same,mutagenic call,"Test System: AMES SALMONELLA TYPHIMURIUM, Strain/Indicator: TA104, Metabolic Activation: RAT, LIVER, S-9, AROCLOR 1254, Method: PREINCUBATION",inactive; negative
same,mutagenic call,"Test System: AMES SALMONELLA TYPHIMURIUM, Strain/Indicator: TA1535, Metabolic Activation: RAT, LIVER, S-9, AROCLOR 1254, Method: PREINCUBATION",active; positive
same,mutagenic call,"Test System: AMES SALMONELLA TYPHIMURIUM, Strain/Indicator: TA1975, Metabolic Activation: RAT, LIVER, S-9, AROCLOR 1254, Method: PREINCUBATION",active; positive
same,mutagenic call,"Test System: CHINESE HAMSTER V-79, Strain/Indicator: V-79/OUABAIN, Metabolic Activation: HAMSTER, HEPATOCYTES, Method: CELL-MEDIATED",active; positive
CCCC(c1cc(C(C)(C)C)c(O)cc1C)c1cc(C(C)(C)C)c(O)cc1C,mutagenic call,[1],inactive; negative
same,mutagenic call,"Test System: AMES SALMONELLA TYPHIMURIUM, Strain/Indicator: TA98, Metabolic Activation: S-9, Method: STANDARD PLATE",inactive; negative
same,mutagenic call,[2],inactive; negative
same,mutagenic call,"Test System: AMES SALMONELLA TYPHIMURIUM, Strain/Indicator: TA100, Metabolic Activation: S-9, Method: STANDARD PLATE",inactive; negative
O=C(Cl)CCl,mutagenic call,"End Point: IN VITRO CHROMOSOMAL ABERRATIONS, Test System: CHINESE HAMSTER LUNG (CHL), Metabolic Activation: NONE",inactive; negative
same,mutagenic call,"End Point: IN VITRO CHROMOSOMAL ABERRATIONS, Test System: CHINESE HAMSTER LUNG (CHL), Metabolic Activation: RAT, LIVER, S-9, KC-400",inactive; negative
Cc1ccc(C(C)(C)C)c(O)c1C(O)c1ncc([N+](=O)[O-])n1C (stereo not drawn),mutagenic call,[1],inactive; negative
same,mutagenic call,"Test System: AMES SALMONELLA TYPHIMURIUM, Strain/Indicator: TA 98, Metabolic Activation: RAT, LIVER, S-9, AROCLOR 1254, Method: STANDARD PLATE",inactive; negative
same,mutagenic call,[2],inactive; negative
same,mutagenic call,"Test System: AMES SALMONELLA TYPHIMURIUM, Strain/Indicator: TA100, Metabolic Activation: RAT, LIVER, S-9, AROCLOR 1254, Method: STANDARD PLATE",inactive; negative
same,mutagenic call,[3],inactive; negative
same,mutagenic call,"Test System: AMES SALMONELLA TYPHIMURIUM, Strain/Indicator: TA1535, Metabolic Activation: RAT, LIVER, S-9, AROCLOR 1254, Method: STANDARD PLATE",inactive; negative
same,mutagenic call,[4],inactive; negative
same,mutagenic call,"Test System: AMES SALMONELLA TYPHIMURIUM, Strain/Indicator: TA1537, Metabolic Activation: RAT, LIVER, S-9, AROCLOR 1254, Method: STANDARD PLATE",inactive; negative
same,mutagenic call,"Test System: AMES SALMONELLA TYPHIMURIUM, Strain/Indicator: TA1538, Metabolic Activation: NONE, Method: STANDARD PLATE",inactive; negative
same,mutagenic call,"Test System: AMES SALMONELLA TYPHIMURIUM, Strain/Indicator: TA1538, Metabolic Activation: RAT, LIVER, S-9, AROCLOR 1254, Method: STANDARD PLATE",inactive; negative
COc1c(O)c2c(c3cc(C(=O)N4CCc5c4c(O)c(OC)c4[nH]c(C(=O)N6C[C@H]7C[C@@]78C6=CC(=O)c6[nH]cc(C)c68)cc54)[nH]c13)CCN2C(N)=O,mutagenic call,[1],inactive; negative
same,mutagenic call,"Test System: AMES SALMONELLA TYPHIMURIUM, Strain/Indicator: TA98, Metabolic Activation: RAT, LIVER, S-9, AROCLOR 1254, Method: STANDARD PLATE",inactive; negative
same,mutagenic call,[2],inactive; negative
same,mutagenic call,"Test System: CHINESE HAMSTER V-79, Strain/Indicator: V-79/6-THIOGUANINE, Metabolic Activation: NONE",active; positive
COC(=O)c1cc2c(c3c1ccc1c(OC)cccc13)OCO2,mutagenic call,[1],active; positive
same,mutagenic call,[2],active; positive
same,mutagenic call,"Test System: AMES SALMONELLA TYPHIMURIUM, Strain/Indicator: TA102, Metabolic Activation: NONE, Method: STANDARD PLATE",active; positive
same,mutagenic call,[4],active; positive
same,mutagenic call,"Test System: AMES SALMONELLA TYPHIMURIUM, Strain/Indicator: TM677/8-AZAGUANINE, Metabolic Activation: NONE, Method: SUSPENSION/PLATE",inactive; negative
CC(=O)OCN(CCCCl)N=O,mutagenic call,"Test System: AMES SALMONELLA TYPHIMURIUM, Strain/Indicator: TA92, Metabolic Activation: NONE, Method: STANDARD PLATE",active; positive
same,mutagenic call,[3],active; positive
